By TGI is commonly meant the concentration giving total growth inhibition. Low readings indicate more potent growth arrest, high ones less potent growth arrest. The GI50 is the concentration giving 50% growth inhibition.

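1) Cells in 96-well plates. 2) Compound, 48 h, 5 concentrations. 3) Linear interpolation between surrounding doses. 4) Unreached endpoint = highest concentration. At the GI50, growth is halved. TGI denotes the concentration required for complete inhibition of growth.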

Among the test systems are A549 NSCLC; CCRF-CEM leukemia; SF-295 CNS; MDA-MB-231 breast; SK-MEL-5 melanoma; NCI/ADR-RES ovarian; HS 578T breast; UACC-62 melanoma; LOX IMVI melanoma; NCI-H226 lung.
Common to all, as to assay: DTP human tumour cell line panel, 48 h

For the compound `CCC1(CC)C(=O)OC(=O)C1(CC)CC`, the TGI in the assay with A549 NSCLC, with CCRF-CEM leukemia, in the assay on SF-295 CNS, in the assay with MDA-MB-231 breast, in the assay on SK-MEL-5 melanoma and in the assay on NCI/ADR-RES ovarian was > 100 µM each time. For the same compound, the TGI in the assay on HS 578T breast, in the assay with UACC-62 melanoma and in the assay on LOX IMVI melanoma was > 100 µM in each case.
As for `c1ccc2c(c1)CCC/C2=N\OCC1CO1` (configuration not stated), the TGI with A549 NSCLC, in the assay on CCRF-CEM leukemia, in the assay on SF-295 CNS, in the assay with SK-MEL-5 melanoma, in the assay with UACC-62 melanoma and in the assay with LOX IMVI melanoma was > 100 µM in each case.
With `COc1cc(/C=C(\C#N)C(=O)c2ccccc2)ccc1OCc1ccccc1`, the TGI with A549 NSCLC, in the assay with NCI-H226 lung, in the assay on CCRF-CEM leukemia, with SF-295 CNS, in the assay with SK-MEL-5 melanoma and in the assay with UACC-62 melanoma was > 100 µM throughout. Further, in the assay on LOX IMVI melanoma, the TGI was > 100 µM.
Consider `O=C1OC(CC(=O)c2ccc(Cl)c(Cl)c2)C(Cl)=C1Cl` (configuration not stated), for which the TGI was > 100 µM with A549 NSCLC; > 100 µM with NCI-H226 lung; 62.5 µM in the assay on CCRF-CEM leukemia; > 100 µM with SF-295 CNS; > 100 µM in the assay with SK-MEL-5 melanoma; > 100 µM in the assay with UACC-62 melanoma. For the same compound, in the assay with LOX IMVI melanoma, the TGI is > 100 µM.
For the compound `CC(O)c1cccc(NCc2c3ccccc3c(=O)n3c2oc2ccccc23)c1` (configuration not stated), the GI50 in the assay with A549 NSCLC is 2330 nM; in the assay with CCRF-CEM leukemia it was 3.34 µM; with SF-295 CNS, 2430 nM; in the assay with MDA-MB-231 breast it was 13.3 µM; in the assay with SK-MEL-5 melanoma, 4.87 µM; in the assay on NCI/ADR-RES ovarian, 11.8 µM. For the same compound, the GI50 in the assay with HS 578T breast is 4.43 µM; in the assay on UACC-62 melanoma, 5.45 µM; in the assay on LOX IMVI melanoma, 8.02 µM. Moreover, the TGI is 24 µM in the assay with A549 NSCLC; > 100 µM in the assay on CCRF-CEM leukemia; 14.5 µM in the assay on SF-295 CNS; 47.9 µM with MDA-MB-231 breast; 31.6 µM with SK-MEL-5 melanoma; 28.5 µM in the assay on NCI/ADR-RES ovarian. Also, the TGI in the assay with HS 578T breast amounted to 57.4 µM; in the assay on UACC-62 melanoma, 22.3 µM; in the assay with LOX IMVI melanoma, 36 µM.
For the compound `COC(=O)C1C(C(=O)OC)C2(OC)c3ccccc3-c3ccccc3C12` (configuration not stated), the concentration for total growth inhibition (TGI) in the assay on A549 NSCLC was > 100 µM; with NCI-H226 lung, > 100 µM; with CCRF-CEM leukemia, 64.3 µM; in the assay on SF-295 CNS it was > 100 µM; in the assay on SK-MEL-5 melanoma it was 78.7 µM; with UACC-62 melanoma it was > 100 µM. Moreover, the TGI in the assay with LOX IMVI melanoma was > 100 µM.
With `CCCCOC(=O)NC(=O)c1cn(CCCOC(=O)CCCCCCCCC(=O)OCCCn2cc(C(=O)NC(=O)OCCCC)c(=O)[nH]c2=O)c(=O)[nH]c1=O`, the TGI in the assay on A549 NSCLC, in the assay with NCI-H226 lung, in the assay with CCRF-CEM leukemia, with SF-295 CNS, in the assay with SK-MEL-5 melanoma and in the assay with UACC-62 melanoma was > 100 µM in each case. The total growth inhibition concentration (TGI) with LOX IMVI melanoma was > 100 µM.
Consider `COc1ccc(NC(=O)C(=O)C(C(=O)c2ccccc2)C2OC(=O)c3ccccc32)c([N+](=O)[O-])c1` (configuration not stated), for which the TGI with A549 NSCLC, with NCI-H226 lung, in the assay with CCRF-CEM leukemia, in the assay with SF-295 CNS, in the assay with SK-MEL-5 melanoma and with UACC-62 melanoma was > 100 µM in each case. In the assay with LOX IMVI melanoma, the TGI is > 100 µM.
`CCNC(=O)CCN(C(=O)O)S(=O)(=O)c1ccc(NC(=O)c2ccccc2)cc1`: the TGI with A549 NSCLC, in the assay on NCI-H226 lung, with CCRF-CEM leukemia, with SF-295 CNS, in the assay with SK-MEL-5 melanoma and in the assay with UACC-62 melanoma was > 100 µM throughout. Also, the TGI in the assay with LOX IMVI melanoma was 43.8 µM.
For `CC(C)CS(=O)(=O)/C(=C(\c1ccc(Br)cc1)S(=O)(=O)CC(C)C)c1ccc(Br)cc1`, the TGI in the assay with A549 NSCLC is > 100 µM; with NCI-H226 lung, > 100 µM; with CCRF-CEM leukemia it was > 100 µM; with SF-295 CNS it was > 100 µM; with SK-MEL-5 melanoma it was 2.8 µM; in the assay on UACC-62 melanoma it was > 100 µM. Also, the TGI in the assay on LOX IMVI melanoma is > 100 µM.
With `NNC(=O)/C(=C/c1ccc(Cl)c(Cl)c1)NC(=O)c1ccccc1`, the TGI in the assay with A549 NSCLC, in the assay with NCI-H226 lung, in the assay with CCRF-CEM leukemia, with SF-295 CNS, with SK-MEL-5 melanoma and in the assay on UACC-62 melanoma was > 100 µM in each case. Further, the TGI in the assay on LOX IMVI melanoma is > 100 µM.
For `CCCCCCCCC[C@@H]1CC(=O)OCC2OC(O[C@H](CCCCCCCCC)CC(=O)OCC3OC(O[C@H](CCCCCCCCC)CC(=O)OCC4OC(O1)C(O)C(O)C4O)C(O)C(O)C3O)C(O)C(O)C2O` (some centres not stated), the TGI is 29.4 µM in the assay with A549 NSCLC; 24.6 µM in the assay with NCI-H226 lung; 19.4 µM in the assay on CCRF-CEM leukemia; 27.1 µM in the assay on SF-295 CNS; 25.5 µM with SK-MEL-5 melanoma; 28.6 µM in the assay with UACC-62 melanoma. Further, in the assay on LOX IMVI melanoma, the TGI stood at 11.7 µM.
Take `CCCCc1c2c(nc3c1CCC/C3=C\c1ccccc1)C(=O)CCC2`: the TGI in the assay on A549 NSCLC is 62 µM; in the assay with NCI-H226 lung it was 45.3 µM; in the assay with CCRF-CEM leukemia, 61.7 µM; in the assay with SF-295 CNS, 40.3 µM; in the assay on SK-MEL-5 melanoma, 30.4 µM; with UACC-62 melanoma it was 44 µM. The compound further showed a TGI in the assay on LOX IMVI melanoma of 34.1 µM.
On to `Cc1[nH]c2ccccc2c1C1Cc2ccccc2N1C(=O)/C=C\C(=O)O` (configuration not stated), for which the TGI with A549 NSCLC was > 100 µM; in the assay with NCI-H226 lung, > 100 µM; with CCRF-CEM leukemia, 94.1 µM; in the assay on SF-295 CNS, 99.4 µM; in the assay with SK-MEL-5 melanoma, 88.3 µM; in the assay on UACC-62 melanoma it was 72.3 µM. This compound displayed a TGI with LOX IMVI melanoma of 37.6 µM.
As to `O=S(=O)(N/N=C/c1ccc(/C=N/NS(=O)(=O)c2ccccc2)cc1)c1ccccc1`, the TGI in the assay with A549 NSCLC was > 100 µM; with NCI-H226 lung, > 100 µM; with CCRF-CEM leukemia, 90.2 µM; in the assay with SF-295 CNS it was 45.6 µM; in the assay with SK-MEL-5 melanoma, > 100 µM; with UACC-62 melanoma, 54.1 µM. In the assay on LOX IMVI melanoma, this compound returned a TGI of 51 µM.

Source of the values: PubChem BioAssay (NCI).
